Columns and labels:
CD-1 mice = experiment: Open field monitoring; type: in vivo; conditions: SG-fed vs control
Description: Five-month old male CD-1 mice (30.1-35.7 g, 7.5 cm - 8.8 cm) were purchased from Charles River (Wilmington, MA). Adult mice were chosen to mimic the mean age of onset of ALS-PDC (Kurland, 1988; Kurland et al., 1994). Thirty mice for the SG study were randomly divided into 2 groups (14 control and 16 experimental animals). All animals were housed singly in a virus-free barrier facility in a room maintained at 22°C under a 12 hour light/dark cycle. The mice were provided ad libitum access to food and water.
(§1) The synthetic SG was mixed with finely ground Purina Chow mouse pellets (Mouse Diet™, Purina) to create the experimental pellets with a SG content of 1000 µg per pellet. Dry materials were blended with a sterile silicon spatula. For every 5 g of standard feed, 2.5 mL of doubly-distilled water (dd)H2O was added and the dough was kneaded and round up into pellets. A single sterol glucoside containing pellet was placed in the feeding tray each morning before the addition of regular mouse chow (ad libitum). All experimental pellets were entirely consumed by the mice each day. Control mice were fed standard mouse chow pellets of identical weight with no additives. SG feeding was conducted daily for 15 weeks and mice were behaviorally monitored until sacrifice at 35 weeks (time point 1) or 52 weeks (time point 2).
Open field monitoring: Spontaneous activity in an open field is considered one of the most standardized general measures of motor function (Crawley, 2000). The open field test can also reveal stress response in animals (i.e. defensive burying or thigmotaxis) (Karl et al., 2003). Open field testing of each animal was conducted every two weeks. A single mouse was placed in one of four round open field arena/tubs (approximately 1 m diameter) to permit the testing of four animals per 5 minute trial. […] This in turn, increases the likelihood of detection of fear-based behavior (Crawley, 2000) and minimizes habituation of the animal to the open field (Crawley, 2000). Testing arenas were cleaned with 70% ethanol before the testing of each animal and with quatricide at the end of each testing session. Movements were recorded using a video camera mounted on the ceiling. Video clips were reviewed and were manually scored or automatically analysed on an automated video tracking software (Ethovision® 3.1, Noldus Information Technologies Inc., Leesburg, VA, USA). Scoring was done on videotaped sessions, rather than in-person at the time of testing to avoid the introduction of confounding variables by the presence of an observer in close proximity to the mice (Crawley, 2000).

[1] = system: Dopaminergic cells Tyrosine Hydroxylase; experiment: Tyrosine hydroxylase immunohistochemistry; type: in vivo, CD-1 mice; conditions: SG-fed animals, either time-point
Description: as §1
Tissue-mounted slides were processed for fluorescence microscopy as follows: Sections were rinsed in coplin jars for 45 minutes at room temperature (RT) in three changes of PBS. Sections were then incubated at RT for 30 minutes in a blocking permeabilization solution made of 5% normal goat serum (NGS), 5% normal rabbit serum (NRS) or 5% BlokHen II (Aves Labs, Inc., Tigard, OR), 0.05% Triton X-100 and PBS. Subsequently, the blocking solution was tipped off and the slides were rinsed in PBS for 2 minutes. […]

With CCC(C=CC(C)C1CCC2C3CC=C4CC(OC5OC(CO)C(O)C(O)C5O)CCC4(C)C3CCC12C)C(C)C (centres unmarked) [SG] the Total distance moved (CD-1 mice; time-point 1, 35 wk) was “Total distance moved (ns)”, the “Total distance to zone border” value (CD-1 mice; time-point 1, 35 wk) was “Total distance to zone border (ns)” and the Total turn angle (CD-1 mice; time-point 1, 35 wk) was “Total turn angle (ns)”. For the same molecule, the “Total distance to zone border” value (CD-1 mice; time-point 2, 52 wk) was “Total distance to zone border* (*p<0.05)” and the “decrease in TH optical density, striata” value [1] was “not significant”.
